These results are taken from patent US10358436B2, “Kinase inhibitors and method of treating cancer” (University Health Network, priority 2010, dated 2019).

Molecules are shown by their SMILES. Counter-ions that a name gives are not always drawn.

What is called inhibition is the relative decrease from the control value, in per cent.

The target of this assay is Aurora A (Homo sapiens (Human), UniProt O14965). Kind of assay: Aurora A inhibition assay (Z-Lyte). Type of assay: biochemical.
Sequence of Aurora A (O14965 whole entry): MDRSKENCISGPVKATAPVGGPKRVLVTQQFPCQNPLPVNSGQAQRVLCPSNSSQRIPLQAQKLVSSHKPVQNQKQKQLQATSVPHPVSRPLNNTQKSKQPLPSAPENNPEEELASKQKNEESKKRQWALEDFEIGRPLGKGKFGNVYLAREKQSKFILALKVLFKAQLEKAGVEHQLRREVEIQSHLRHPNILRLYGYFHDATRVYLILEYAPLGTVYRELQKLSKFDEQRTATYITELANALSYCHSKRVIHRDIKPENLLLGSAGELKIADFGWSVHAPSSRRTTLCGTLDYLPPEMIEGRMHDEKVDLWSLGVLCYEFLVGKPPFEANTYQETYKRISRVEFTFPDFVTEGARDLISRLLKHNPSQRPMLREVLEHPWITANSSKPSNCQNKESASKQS

`COc1ccc2c(c1)[C@]1(C[C@H]1c1ccc3c(/C=C/c4ccc(N5CCNCC5)cc4)n[nH]c3c1)C(=O)N2` (relative stereo) [Example A182, (1R*,2S*)-5′-methoxy-2-(3-(4-(piperazin-1-yl)styryl)-1H-indazol-6-yl)spiro[cyclopropane-1,3′-indolin]-2′-one 2,2,2-trifluoroacetate] showed an inhibition at 1 µM above 50%.
With `COc1ccc2c(c1)[C@]1(C[C@H]1c1ccc3c(-c4ccc5c(c4)CN(C)CC5)n[nH]c3c1)C(=O)N2` [Example A70, (1R,2S)-5′-methoxy-2-(3-(2-methyl-1,2,3,4-tetrahydroisoquinolin-7-yl)-1H-indazol-6-yl)spiro[cyclopropane-1,3′-indolin]-2′-one 2,2,2-trifluoroacetate salt], the inhibition at 1 µM is below 50%.
In the case of `COc1ccc2c(c1)[C@]1(C[C@H]1c1ccc3c(/C=C/c4ccc(CN5CCOCC5)cc4)n[nH]c3c1)C(=O)N2C` [Example A102, (1R,2S)-(E)-5′-methoxy-1′-methyl-2-(3-(4-(morpholinomethyl)styryl)-1H-indazol-6-yl)spiro[cyclopropane-1,3′-indolin]-2′-one hydrochloride], the inhibition at 1 µM is above 50%.
As for `COc1ccc2c(c1)[C@]1(C[C@H]1c1ccc3c(-c4ccc(CO)cc4)n[nH]c3c1)C(=O)N2` (relative stereo) [Example A45, (1R*,2S*)-2-(3-(4-(hydroxymethyl)phenyl)-1H-indazol-6-yl)-5′-methoxyspiro[cyclopropane-1,3′-indolin]-2′-one 2,2,2-trifluoroacetate], the figure is below 50%.
In turn, `COc1ccc2c(c1)[C@]1(C[C@H]1c1ccc3c(/C=C/c4cc(F)c(CN(C)C)c(F)c4)n[nH]c3c1)C(=O)N2` [Example A216, (1R,2S)-(E)-2-(3-(4-((dimethylamino)methyl)-3,5-difluorostyryl)-1H-indazol-6-yl)-5′-methoxyspiro[cyclopropane-1,3′-indolin]-2′-one 2,2,2-trifluoroacetate] showed an inhibition at 1 µM above 50%.
The value for `O=C1Nc2ccc(F)cc2[C@]12C[C@H]2c1ccc2c(I)n[nH]c2c1` (relative stereo) [Example A40, (1R*,2S*)-5′-fluoro-2-(3-iodo-1H-indazol-6-yl)spiro[cyclopropane-1,3′-indolin]-2′-one] was below 50%.
As for `COc1ccc2c(c1)[C@]1(C[C@H]1c1ccc3c(/C=C/c4ccc(CN5CCOCC5)s4)n[nH]c3c1)C(=O)N2` [Example A105, (1R,2S)-5′-methoxy-2-(3-((E)-2-(5-(morpholinomethyl)thiophen-2-yl)vinyl)-1H-indazol-6-yl)spiro[cyclopropane-L3′-indolin]-2′-one hydrochloride], the figure is above 50%; as for `COc1ccc2c(c1)[C@]1(C[C@H]1c1ccc3c(/C=C/c4ccc5c(c4)CN(C)CC5)n[nH]c3c1)C(=O)N2` [Example A64, (1R,2S)-5′-methoxy-2-(3-((E)-2-(2-methyl-1,2,3,4-tetrahydroisoquinolin-7-yl)vinyl)-1H-indazol-6-yl)spiro[cyclopropane-1,3′-indolin]-2′-one 2,2,2-trifluoroacetate salt], above 50%; as for `CCN(CC)Cc1ccc(/C=C/c2n[nH]c3cc([C@@H]4C[C@@]45C(=O)Nc4ccc(OC)cc45)ccc23)cc1` [Example A206, (1R,2S)-(E)-2-(3-(4-((diethylamino)methyl)styryl)-1H-indazol-6-yl)-5′-methoxy spiro[cyclopropane-1,3′-indolin]-2′-one 2,2,2-trifluoroacetate], above 50%.
As for `CN1C(=O)[C@@]2(C[C@H]2c2ccc3c(/C=C/c4ccc(CN5CCCCC5)cc4)n[nH]c3c2)c2ccccc21` [Example A94, (1R,2S)-(E)-1′-methyl-2-(3-(4-(piperidin-1-ylmethyl)styryl)-1H-indazol-6-yl)spiro[cyclopropane-1,3′-indolin]-2′-one hydrochloride], the figure is above 50%.
